Data reported in patent US9447069B2, “ROR modulators and their uses” (INNOV17 LLC, priority 2012, dated 2016).

Experiments:
IL-17F = assay: Real-Time qRT-PCR gene expression in TH17 cells (IL-17F); type: cell-based, human; set-up: key: A: No change in gene expression observed relative to DMSO treated Th17 cells; B: Decreased gene expression observed relative to DMSO treated Th17 cells; C: Increased gene expression observed relative to DMSO treated Th17 cells; details: normalized to six reference genes
Protocol: (§1) Peripheral blood mononuclear cells (PBMCs) were sourced from freshly prepared leukocyte enriched plasma (buffy coat) from healthy volunteers from which PBMCs were isolated by density gradient centrifugation using Ficoll-Paque™ PLUS (GE Healthcare). Naïve CD4+ T cells were isolated using the Naïve CD4+ T cell Isolation Kit II (Miltenyi Biotec) as per manufacturer's instructions. CD4+ T cells were plated at 5×10^4 cells/well in 96 well plates pre-coated with immobilized human (h)-αCD3 antibody (eBioscience) then differentiated to TH17 cells using h-αCD28, h-αIFN-γ, h-αIL-4, h-IL-6, h-IL-23, h-IL-1β, h-TGF-β1 (eBioscience) and maintained in a cell culture incubator at 37° C. with 5% CO2 in TexMACS Medium (Miltenyi Biotec) supplemented with 1% Penicillin/Streptomycin (Lonza) over 5 days.
(§2) RNA was isolated from TH17 cells and cDNA was synthesized using the Verso cDNA kit (Thermo Scientific) as per manufacturer's instructions. IL-17A, IL-17F, IL-21, IL-22, G-CSF, IL-23R and FOXP3 gene expression were determined for compound treated and untreated TH17 cell samples using Solaris qPCR Gene expression assays (Thermo Scientific) with an iCycler iQ Real-Time PCR Detection System (Bio-Rad). Individual gene expression was normalized to a panel of six reference genes (ACTB, TBP, HPRT1, PGK1, TFRC and PPIA) (Thermo Scientific) and analyzed by REST 2009 (Qiagen) in accordance to MIQE guidelines (Bustin et al. (2009) Clin. Chem, 55:611-622). The effects of compounds on TH17 cytokine gene expression are presented as fold change in mRNA levels of compound treated TH17 cells relative to DMSO treated cells in the table below.

RORγ LBD [1] = biological target: T1, RORγ LBD (Homo sapiens, UniProt P51449); assay: TR-FRET D22 co-activator displacement from RORγ LBD; type: biochemical; set-up: purified GST-tagged (i) RORγ LBD or (ii) RORα LBD; purchased Life Technologies
T1 sequence (P51449 269-508 limits assumed): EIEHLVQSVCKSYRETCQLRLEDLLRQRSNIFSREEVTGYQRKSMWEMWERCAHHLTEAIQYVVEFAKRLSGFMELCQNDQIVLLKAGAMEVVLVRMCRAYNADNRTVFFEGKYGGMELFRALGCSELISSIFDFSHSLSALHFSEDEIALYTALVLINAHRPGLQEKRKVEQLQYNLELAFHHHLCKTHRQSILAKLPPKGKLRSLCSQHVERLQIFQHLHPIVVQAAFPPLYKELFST
Excerpt: (§3) The Time-Resolved Fluorescence Resonance Energy Transfer (TR-FRET) assay kit (Life Technologies) was used to measure compound efficacy to disrupt or enhance ligand-mediated interaction of the co-activator and co-repressor peptides with the purified GST-tagged (i) RORγ LBD or (ii) RORα LBD. The RORγ LBD and RORα LBD each have a basal level of interaction with the co-activator D22 or co-repressor NCoR1-D2 in the absence of ligand, thus it is possible to identify compounds that inhibit or induce RORγ and/or RORα co-activator/co-repressor interactions, thus determining RORα, RORγ, or RORα/RORγ compound selectivity. The assay was performed as per manufacturer's instructions and TR-FRET was assessed 2 and 20 hours post-assay initiation. Compounds were identified to (i) have no impact on either co-activator displacement or […] from the assessed LBD (ii) promote co-activator displacement from the assessed LBD (iii) promote co-repressor recruitment to the assessed LBD or (iv) concurrently promote co-activator displacement from the assessed LBD and co-repressor recruitment to the assessed LBD.

FOXP3 = assay: Real-Time qRT-PCR gene expression in TH17 cells (FOXP3); type: cell-based, human; set-up: key: A: No change in gene expression observed relative to DMSO treated Th17 cells; B: Decreased gene expression observed relative to DMSO treated Th17 cells; C: Increased gene expression observed relative to DMSO treated Th17 cells; details: normalized to six reference genes
Protocol: as §1, §2

IL-22 = assay: Real-Time qRT-PCR gene expression in TH17 cells (IL-22); type: cell-based, human; set-up: key: A: No change in gene expression observed relative to DMSO treated Th17 cells; B: Decreased gene expression observed relative to DMSO treated Th17 cells; C: Increased gene expression observed relative to DMSO treated Th17 cells; details: normalized to six reference genes
Protocol: as §1, §2

RORγ LBD [2] = biological target: T1, RORγ LBD; assay: TR-FRET NCoR1-D2 co-repressor recruitment to RORγ LBD; type: biochemical; set-up: purified GST-tagged (i) RORγ LBD or (ii) RORα LBD; purchased Life Technologies
Excerpt: as §3

IL-21 = assay: Real-Time qRT-PCR gene expression in TH17 cells (IL-21); type: cell-based, human; set-up: key: A: No change in gene expression observed relative to DMSO treated Th17 cells; B: Decreased gene expression observed relative to DMSO treated Th17 cells; C: Increased gene expression observed relative to DMSO treated Th17 cells; details: normalized to six reference genes
Protocol: as §1, §2

[3] = TH17 cell viability (Prestoblue); type: cell-based; details: human; 1 μM compound, after 5 days, percentage of DMSO treated cells
Protocol: as §1
Cells were assayed for viability in the presence or absence of 1 μM compound using Prestoblue® Cell Viability Reagent (Life Technologies) as per manufacturer's instructions after 30 minutes incubation of TH17 cells with reagent. Absorbance was measured at 570 nm and 600 nm using a microplate reader (Perkin Elmer) and data were analyzed as per manufacturer's instructions. Cell viability was determined after 5 days and expressed as a percentage of DMSO treated cells.

[4] = TR-FRET assessed 2 hr post-assay initiation, read-out: RORγ EC50 D22 co-activator displacement, 2 hr
[5] = TR-FRET assessed 20 hr post-assay initiation, read-out: RORγ EC50 D22 co-activator displacement, 20 hr
[6] = TR-FRET assessed 2 hr post-assay initiation, read-out: RORγ EC50 NCoR1-D2 co-repressor recruitment, 2 hr
[7] = TR-FRET assessed 20 hr post-assay initiation, read-out: RORγ EC50 NCoR1-D2 co-repressor recruitment, 20 hr

Structure (SMILES)	Fold change in mRNA levels of compound treated TH17 cells relative to DMSO treated cells, IL-17F (IL-17F)	EC50 (RORγ LBD [1]; [4]) [µM]	EC50 (RORγ LBD [1]; [5]) [µM]	Fold change in mRNA levels of compound treated TH17 cells relative to DMSO treated cells, FOXP3 (FOXP3)	Fold change in mRNA levels of compound treated TH17 cells relative to DMSO treated cells, IL-22 (IL-22)	EC50 (RORγ LBD [2]; [6]) [µM]	EC50 (RORγ LBD [2]; [7]) [µM]	Fold change in mRNA levels of compound treated TH17 cells relative to DMSO treated cells, IL-21 (IL-21)	viability at 5 days, 1 µM [3] [%]
Cc1cc(-c2ccc3c(c2)CCCN3Cc2ccc(C(O)(C(F)(F)F)C(F)(F)F)cc2)[nH]n1 [Example 1, 1,1,1,3,3,3-hexafluoro-2-(4-((6-(3-methyl-1H-pyrazol-5-yl)-3,4-dihydroquinolin-1(2H)-yl)methyl)phenyl)propan-2-ol]	B	< 30	< 30	C	B	> 30	< 30	B	> 80
OC(c1ccc(CN2CCCc3cc(-c4cn[nH]c4)ccc32)cc1)(C(F)(F)F)C(F)(F)F [Example 2, 2-(4-((6-(1H-pyrazol-4-yl)-3,4-dihydroquinolin-1(2H)-yl)methyl)phenyl)-1,1,1,3,3,3-hexafluoropropan-2-ol]	B	< 30	< 30	C	B	< 30	< 30	B	> 80
Cc1n[nH]c(-c2ccc3c(c2)CCCN3Cc2ccc(C(O)(C(F)(F)F)C(F)(F)F)cc2)n1 [Example 3, 1,1,1,3,3,3-hexafluoro-2-(4-((6-(3-methyl-1H-1,2,4-triazol-5-yl)-3,4-dihydroquinolin-1(2H)-yl)methyl)phenyl)propan-2-ol]	B	< 30	> 30	A	B	> 30	< 30	B	> 80
Cc1cc(-c2ccc3c(c2)CCC(=O)N3Cc2ccc(C(O)(C(F)(F)F)C(F)(F)F)cc2)[nH]n1 [Example 4, 1-(4-(1,1,1,3,3,3-hexafluoro-2-hydroxypropan-2-yl)benzyl)-6-(3-methyl-1H-pyrazol-5-yl)-3,4-dihydroquinolin-2(1H)-one]	B	> 30	> 30	A	B	> 30	< 30	B	> 80
O=C1CCc2cc(-c3cn[nH]c3)ccc2N1Cc1ccc(C(O)(C(F)(F)F)C(F)(F)F)cc1 [Example 5, 1-(4-(1,1,1,3,3,3-hexafluoro-2-hydroxypropan-2-yl)benzyl)-6-(1H-pyrazol-4-yl)-3,4-dihydroquinolin-2(1H)-one]	A	> 30	< 30	A	A	> 30	< 30	A	< 80
Cc1n[nH]c(-c2ccc3c(c2)CCC(=O)N3Cc2ccc(C(O)(C(F)(F)F)C(F)(F)F)cc2)n1 [Example 6, 1-(4-(1,1,1,3,3,3-hexafluoro-2-hydroxypropan-2-yl)benzyl)-6-(3-methyl-1H-1,2,4-triazol-5-yl)-3,4-dihydroquinolin-2(1H)-one]	B	< 30	< 30	C	B	> 30	> 30	A	> 80
